The results in this text go back to patent US20100285959A1, “HERBICIDAL MIXTURES” (priority 2006, published 2010).

One data set deals with oak species (QUESS). Kind of data set: Test 13 field trial, postemergence, brush weeds. The conditions noted are these: 56 DAA; g a.i./ha: Cpd 2 250; Fosamine-ammonium 6700. In kind it is in vivo, Quercus L. spp. The text has this:
(§1) Plots were established in non-crop land and were 6.1 m long by 3.0 m wide. […] Treatments were applied postemergence to the brush weeds using a backpack sprayer delivering a spray volume of 468 L/ha using a pressure of 241 kPa. […] All treatments also included a surfactant. […] Results are the means of the three replicates.

The next data set has as its system mixed hardwoods (MXDSP). Kind of data set: Test 13 field trial, postemergence, brush weeds. In kind it is in vivo, Nyssa sylvatica, Acer rubrum, Liquidambar styraciflua. Conditions: 56 DAA; g a.i./ha: Cpd 2 250; Fosamine-ammonium 6700.
Text: as §1

Another data set relates to wheat (TRZAW). More on the design: species or system Triticum aestivum. Conditions: in vivo. Here is the method: (§2) A greenhouse test was conducted to evaluate the effects of Compounds 1 and 2, applied preemergence, on the plant species corn (ZEAMD, Zea mays ssp. indentata) and wheat (TRZAW, Triticum aestivum L.) grown from seed treated with and without naphthalic anhydride. Naphthalic anhydride was applied at a rate of 1% wt/wt basis to corn and wheat seed. Seed treatments were made as follows for evaluations of the chemical materials employed. One-hundred grams of each crop seed were placed in a separate self-closing plastic bag to which 1 gram of the chemical material was added. The bag containing the seed was tightly closed and gently agitated thereby allowing the seed to slowly come in contact with the chemical material to achieve maximal distribution on the seed surface, arriving at a uniform coverage. Treatment rate comparisons between spray application and seed treatment materials were made on the calculated area rate of naphthalic anhydride in grams active ingredient per hectare for a given crop. These rates were calculated based on a typical seeding rate per hectare used for agronomic production of a given crop. For wheat, a typical average seeding rate is 200 wheat seeds per square meter which weigh 6.8 g. For corn, a typical average seeding rate is 7.5 corn seeds per square meter which weigh 2.0 g. […] Corn treatments were replicated three times. Wheat treatments were replicated two times. […]

The subject of data set [1] is corn (ZEAMD). Set-up: species or system Zea mays ssp. indentata. The conditions noted are these: in vivo. Here is the method: as §2
Data set [2] relates to common chickweed (STEME). Kind of data set: Test 9 field trial, emerged weeds before corn planting. The format is in vivo, Stellaria media. Conditions: g a.i./ha: Cpd 2 100, Glyphosate 1540, Paraquat 1150. Here is the method:
(§3) Corn seeds (hybrid ‘Pioneer 34M91 RR’) were planted in mid spring season, about 3.8 cm deep in a silty clay loam soil having a pH of 6.7. Plots were 9.1 m long by 3.0 m. The field was managed using no-till practices. […] Compound 2 and paraquat treatments, alone and in combination, also included a surfactant. Glyphosate, alone and with Compound 2, included ammonium sulfate in the treatment mixture. […] The effects on the weeds in the treated plots and untreated control plots were recorded 7, 14, 23, 30 and 57 days after application. Most of the weed species could not be evaluated at every timing. Corn response was only evaluated 57 days after application. […] Results are the means of the three replicates.

In another data set the test system is giant foxtail (SETFA). Kind of data set: Test 3 field trial, emerged weeds before corn planting. In kind it is in vivo, Setaria faberi. The conditions noted are these: 68 DAA; Cpd 2 100, glyphosate 1540, paraquat 1150 g a.i./ha, alone or combined. The source says: (§4) Corn seeds (hybrid ‘Pioneer 33J56’) were planted in early spring season, 3.8 cm deep in a silt loam soil having 2.4% organic matter and a pH of 6. Plots were 6.1 m long by 2.7 m wide with rows spaced 91.4 cm apart. The field was managed using no-till practices. […] Compound 2 and paraquat treatments, alone and in combination, also included a surfactant. Glyphosate, alone and with Compound 2, included ammonium sulfate in the treatment mixture. […] The effects on the weeds in the treated plots and untreated control plots were recorded 30, 42, 46 and 68 days after application. Most of the weed species could not be evaluated at every timing. Corn response was not evaluated because the growth was highly variable depending on the efficacy of the weed control treatments. […] Results are the means of the three replicates.

Data set [3] has as its system common lambsquarters (CHEAL). Kind of data set: Test 9 field trial, emerged weeds before corn planting. The format is in vivo, Chenopodium album. Conditions: 57 DAA; g a.i./ha: Cpd 2 100, Glyphosate 1540, Paraquat 1150. Here is the method:
as §3

The subject of another data set is curly dock (RUMCR). Kind of data set: Test 3 field trial, emerged weeds before corn planting. In kind it is in vivo, Rumex crispus. The conditions noted are these: Cpd 2 100, glyphosate 1540, paraquat 1150 g a.i./ha, alone or combined.
Text: as §4

Data set [4] concerns red deadnettle (LAMPU). The data set is described as above. The format is in vivo, Lamium purpureum. Conditions: Cpd 2 100, glyphosate 1540, paraquat 1150 g a.i./ha, alone or combined.
Text: as §4

The test system of a further data set is shepherd's purse (CAPBP). Kind of data set: Test 9 field trial, emerged weeds before corn planting. In kind it is in vivo, Capsella bursa-pastoris. Conditions: g a.i./ha: Cpd 2 100, Glyphosate 1540, Paraquat 1150. Here is the method: as §3
For data set [5], the system named is Virginia pepperweed (LEPVI). Kind of data set: Test 3 field trial, emerged weeds before corn planting. The format is in vivo, Lepidium virginicum. The conditions noted are these: Cpd 2 100, glyphosate 1540, paraquat 1150 g a.i./ha, alone or combined.
Text: as §4

The subject of the next data set is giant ragweed (AMBTR). Kind of data set: Test 9 field trial, emerged weeds before corn planting. The format is in vivo, Ambrosia trifida. The conditions noted are these: g a.i./ha: Cpd 2 100, Glyphosate 1540, Paraquat 1150. As to the method:
as §3

Data set [6] concerns corn (ZEAMD). The data set is described as above. In kind it is in vivo, Zea mays ssp. indentata. The conditions noted are these: 57 DAA; g a.i./ha: Cpd 2 100, Glyphosate 1540, Paraquat 1150. As to the method:
as §3

Data set [7] relates to henbit deadnettle (LAMAM). The description is as above. The format is in vivo, Lamium amplexicaule. The conditions noted are these: g a.i./ha: Cpd 2 100, Glyphosate 1540, Paraquat 1150. Here is the method:
as §3

The subject of data set [8] is red deadnettle (LAMPU). Described as above. In kind it is in vivo, Lamium purpureum. Conditions: g a.i./ha: Cpd 2 100, Glyphosate 1540, Paraquat 1150. Here is the method:
as §3

The next data set deals with bushy wallflower (ERYRE). The description is as above. The format is in vivo, Erysimum repandum. Conditions: g a.i./ha: Cpd 2 100, Glyphosate 1540, Paraquat 1150. Here is the method: as §3
Data set [9] has as its system common chickweed (STEME). Kind of data set: Test 3 field trial, emerged weeds before corn planting. In kind it is in vivo, Stellaria media. Conditions: Cpd 2 100, glyphosate 1540, paraquat 1150 g a.i./ha, alone or combined.
Text: as §4

The test system of another data set is prickly lettuce (LACSE). Kind of data set: Test 9 field trial, emerged weeds before corn planting. The format is in vivo, Lactuca serriola. Conditions: g a.i./ha: Cpd 2 100, Glyphosate 1540, Paraquat 1150. As to the method: as §3
In data set [10] the test system is common lambsquarters (CHEAL). Kind of data set: Test 3 field trial, emerged weeds before corn planting. The format is in vivo, Chenopodium album. Conditions: 68 DAA; Cpd 2 100, glyphosate 1540, paraquat 1150 g a.i./ha, alone or combined.
Text: as §4

In data set [11] the test system is smallflower buttercup (RANAB). Kind of data set: Test 9 field trial, emerged weeds before corn planting. The format is in vivo, Ranunculus abortivus. The conditions noted are these: g a.i./ha: Cpd 2 100, Glyphosate 1540, Paraquat 1150. Here is the method: as §3
The subject of a further data set is Canada horseweed (ERICA). Described as above. In kind it is in vivo, Erigeron canadensis. The conditions noted are these: g a.i./ha: Cpd 2 100, Glyphosate 1540, Paraquat 1150. Here is the method: as §3
Another data set deals with common dandelion (TAROF). The data set is described as above. The format is in vivo, Taraxacum officinale. Conditions: g a.i./ha: Cpd 2 100, Glyphosate 1540, Paraquat 1150. Here is the method: as §3

Molecules are shown by their SMILES. Where two headings read alike, the source gives them in different places.

Take `CCOP(=O)(O)C(N)=O` [Fosamine-ammonium, fosamine-ammonium, reference compound]: the “QUESS Obs” value in the data set on oak species (QUESS) was determined as 33. The “MXDSP Obs” value in the data set with mixed hardwoods (MXDSP) is on record as 47.
For `O=C1OC(=O)c2cccc3cccc1c23` [Naphthalic anhydride], the “TRZAW Obs” value with wheat (TRZAW) came to 0. The “ZEAMD Obs” value in the data set with corn (ZEAMD) [1] was 0.
For `C[n+]1ccc(-c2cc[n+](C)cc2)cc1` [Paraquat], the “STEME Obs” value is 99% in the data set on common chickweed (STEME) [2] (7 DAA); 99% in the data set with common chickweed (STEME) [2] (14 DAA); 100% with common chickweed (STEME) [2] (23 DAA); 100% with common chickweed (STEME) [2] (30 DAA); 98% with common chickweed (STEME) [2] (57 DAA); 96% in the data set with common chickweed (STEME) [9] (30 DAA). The “STEME Obs” value came to 97% in the data set with common chickweed (STEME) [9] (42 DAA) and 88% with common chickweed (STEME) [9] (46 DAA). Further, in the data set on giant foxtail (SETFA), the “SETFA Obs” value was determined as 0%. Moreover, the “CHEAL Obs” value in [3] and in [10] was 0% throughout. The “RUMCR Obs” value with curly dock (RUMCR) (30 DAA) was 58%; in the data set with curly dock (RUMCR) (42 DAA) it was 58%; in the data set with curly dock (RUMCR) (46 DAA), 13%; with curly dock (RUMCR) (68 DAA), 15%. Further, the “LAMPU Obs” value with red deadnettle (LAMPU) [4] (30 DAA) is reported as 100%; in the data set with red deadnettle (LAMPU) [4] (42 DAA), 98%; in the data set on red deadnettle (LAMPU) [4] (46 DAA), 100%; with red deadnettle (LAMPU) [8] (7 DAA), 79%; in the data set with red deadnettle (LAMPU) [8] (14 DAA) it was 80%; with red deadnettle (LAMPU) [8] (23 DAA) it was 81%. The “LAMPU Obs” value in the data set with red deadnettle (LAMPU) [8] (30 DAA) was found to be 70%. In addition, the “CAPBP Obs” value is 89% in the data set on shepherd's purse (CAPBP) (7 DAA); 85% in the data set with shepherd's purse (CAPBP) (14 DAA); 77% with shepherd's purse (CAPBP) (23 DAA); 72% in the data set on shepherd's purse (CAPBP) (30 DAA); 93% in the data set on shepherd's purse (CAPBP) (57 DAA). Also, the “LEPVI Obs” value came to 100% in data set [5] (30 DAA), 96% in data set [5] (42 DAA) and 100% in data set [5] (46 DAA). For the same compound, the figures for the “AMBTR Obs” value with giant ragweed (AMBTR) (7 DAA), with giant ragweed (AMBTR) (14 DAA) and with giant ragweed (AMBTR) (57 DAA) were 100%, 100% and 70%, respectively. In addition, the “ZEAMD Obs” value with corn (ZEAMD) [6] was found to be 0%. For the same compound, the “LAMAM Obs” value is 93% in data set [7] (7 DAA); 84% in data set [7] (14 DAA); 85% in data set [7] (23 DAA); 73% in data set [7] (30 DAA); 81% in data set [7] (57 DAA). The “ERYRE Obs” value with bushy wallflower (ERYRE) (7 DAA) is on record as 98%; in the data set with bushy wallflower (ERYRE) (14 DAA) it was 94%; in the data set on bushy wallflower (ERYRE) (23 DAA), 98%; in the data set with bushy wallflower (ERYRE) (30 DAA), 100%; with bushy wallflower (ERYRE) (57 DAA), 80%. The “LACSE Obs” value with prickly lettuce (LACSE) (7 DAA) came out at 97%; with prickly lettuce (LACSE) (14 DAA), 95%; in the data set with prickly lettuce (LACSE) (23 DAA), 100%; in the data set on prickly lettuce (LACSE) (30 DAA) it was 100%; in the data set with prickly lettuce (LACSE) (57 DAA), 100%. In addition, the “RANAB Obs” value in [11] (7 DAA) was 98%; in [11] (14 DAA) it was 100%; in [11] (23 DAA), 100%; in data set [11] (30 DAA), 100%. Besides, the “ERICA Obs” value in the data set with Canada horseweed (ERICA) (7 DAA) worked out at 95%; in the data set on Canada horseweed (ERICA) (14 DAA), 96%; in the data set on Canada horseweed (ERICA) (23 DAA) it was 99%; in the data set on Canada horseweed (ERICA) (30 DAA), 100%; in the data set on Canada horseweed (ERICA) (57 DAA) it was 81%. The “TAROF Obs” value in the data set with common dandelion (TAROF) (7 DAA) is 79%; in the data set on common dandelion (TAROF) (14 DAA), 69%; in the data set with common dandelion (TAROF) (23 DAA), 61%; with common dandelion (TAROF) (30 DAA), 33%; in the data set on common dandelion (TAROF) (57 DAA), 0%.
